Results from ChEMBL document CHEMBL1124817, “Synthesis and Ca2+ antagonistic activity of 2-[2-[(aminoalkyl)oxy]-5-methoxyphenyl]-3,4-dihydro-4-methyl-3-oxo-2H- 1,4-benzothiazines” (J Med Chem, 1990).
pIC50: −log10 of the molar value.

Legend:
Cavia porcellus [1] = species on record: Cavia porcellus; test: Inhibitory concentration required to block Ca+2 induced contraction of K+ depolarized guinea pig aorta; format: functional
[2] = Selectivity ratio of IC50 for [Ca2+] antagonistic activity in aorta / IC50 for suppressive effect on contractile force; format: functional
Cavia porcellus [3] = species on record: Cavia porcellus; test: Inhibitory concentration required to suppress the contractile force of guinea pig right atria; format: functional
Cavia porcellus [4] = species on record: Cavia porcellus; test: Inhibitory concentration required to block Ca+2 induced contraction of K+ depolarized guinea pig taenia cecum; format: functional, Caecum
[5] = Selectivity ratio of IC50 for [Ca2+] antagonistic activity in aorta / IC50 for suppressive effect on rate of contraction; format: functional
Cavia porcellus [6] = species on record: Cavia porcellus; test: Inhibitory concentration required to suppress the rate of contraction of guinea pig right atria; format: functional

pIC50 (Cavia porcellus [1]) | pIC50 (Cavia porcellus [3]) | pIC50 (Cavia porcellus [4]; Cavia porcellus, Caecum) | pIC50 (Cavia porcellus [6]; read-out: IC50) | pIC50 (Cavia porcellus [4]) | pIC50 (Cavia porcellus [6]) | SMILES | Ratio [2] | Ratio [5]
5.54 | 6.36 | 6.64 | 6.22 |  |  | COc1ccc(OCCCCN(C)CCOc2ccc(OC)c(OC)c2)c(C2Sc3ccccc3N(C)C2=O)c1 (stereo unspecified) | 6.6 | 4.8
6.48 | 7.03 | 6.77 | 6.72 |  |  | COc1ccc(OCCCCN(C)CCOc2ccc3c(c2)OCO3)c(C2Sc3ccccc3N(C)C2=O)c1 (stereo unspecified) | 3.5 | 1.7
 |  | 6.28 |  |  |  | COc1ccc(OCCN(C)CCCCOc2ccc(OC)cc2C2Sc3ccccc3N(C)C2=O)cc1 (stereo unspecified) |  | 
 |  | < 5.00 |  |  |  | COc1ccc(OCCCN(C)CCOc2ccc3c(c2)OCO3)c(C2(C(C)C)Sc3ccccc3N(C)C2=O)c1 (stereo unspecified) |  | 
5.82 | 6.70 | 6.80 | 6.72 |  |  | COc1ccc(OCCCCN(C)CCOc2cc(OC)c(OC)c(OC)c2)c(C2Sc3ccccc3N(C)C2=O)c1 (stereo unspecified) | 7.5 | 7.9
 |  | 6.46 |  |  |  | COc1ccc(OCCCCN(C)CCc2cc(OC)c(OC)c(OC)c2)c(C2Sc3ccccc3N(C)C2=O)c1 (stereo unspecified) |  | 
 |  | 5.72 |  |  |  | COc1ccc(OCCCN(CCOc2ccc3c(c2)OCO3)C(C)C)c(C2Sc3ccccc3N(C)C2=O)c1 (stereo unspecified) |  | 
5.62 | 6.28 | 6.57 | 6.40 |  |  | COc1ccc(OCCCN(C)CCc2cc(OC)c(OC)c(OC)c2)c(C2Sc3ccccc3N(C)C2=O)c1 (stereo unspecified) | 4.6 | 6
 |  | 6.31 |  |  |  | COc1ccc(OCCCNCCOc2ccc3c(c2)OCO3)c(C2Sc3ccccc3N(C)C2=O)c1 (stereo unspecified) |  | 
 |  | 5.68 |  |  |  | COc1ccc(OCCCN(C)CCOc2ccc3c(c2)OCO3)c(C2(C)Sc3ccccc3N(C)C2=O)c1 (stereo unspecified) |  | 
 |  | 6.26 |  |  |  | COc1cc(OC)cc(OCCN(C)CCCOc2ccc(OC)cc2C2Sc3ccccc3N(C)C2=O)c1 (stereo unspecified) |  | 
 |  | 5.82 |  |  |  | COc1ccc(OCCCN(C)CCOc2ccc3c(c2)OCO3)c(C2(SC)Sc3ccccc3N(C)C2=O)c1 (stereo unspecified) |  | 
 |  | < 5.00 |  |  |  | COc1ccc(OCCCN(C)CCOc2ccc3c(c2)CCC3)c(C2Sc3ccccc3N(C)C2=O)c1 (stereo unspecified) |  | 
5.39 | 6.43 | 6.64 | 6.30 |  |  | COc1ccc(OCCCN(C)CCOc2cc(OC)c(OC)c(OC)c2)c(C2Sc3ccccc3N(C)C2=O)c1 (stereo unspecified) | 11.1 | 8.2
 |  | 6.29 |  |  |  | COc1ccc(OCCCN(C)CCOc2c(OC)cccc2OC)c(C2Sc3ccccc3N(C)C2=O)c1 (stereo unspecified) |  | 
 |  | 6.60 |  |  |  | COc1ccc(OCCCN(C)CCOc2ccc3c(c2)OCO3)c(C2(OC)Sc3ccccc3N(C)C2=O)c1 (stereo unspecified) |  | 
 |  | < 5.00 |  |  |  | COc1ccc(OCCCN(C)CCOc2ccc3c(c2)OCO3)c(C2CN(C)c3ccccc3S2)c1 (stereo unspecified) |  | 
 |  | < 5.00 |  |  |  | COc1ccc(OCCCN(C)CCOc2ccc3c(c2)OCO3)c(C2Sc3ccccc3N(C)C2=S)c1 (stereo unspecified) |  | 
6.18 | 6.51 |  | 6.23 | 6.74 |  | COc1ccc(OCCCN(C)CCOc2ccc3c(c2)OCO3)c(C2Sc3ccccc3N(C)C2=O)c1 (stereo in doubt; 15) | 2.1 | 1.1
 |  |  |  | 6.22 |  | COc1ccc(OCCCN(C)CCOc2ccc3c(c2)OCO3)c(C2Sc3ccccc3N(C)C2=O)c1 (stereo in doubt; (-)-15) |  | 
5.35 | 7.02 |  | 6.22 |  |  | COc1ccc([C@@H]2Sc3ccccc3N(CCN(C)C)C(=O)[C@@H]2OC(C)=O)cc1 [DILTIAZEM] | 47.4 | 7.5
6.64 | 7.17 | 7.05 | 6.74 |  |  | COc1ccc(OCCCN(C)CCOc2ccc3c(c2)OCO3)c([C@H]2Sc3ccccc3N(C)C2=O)c1 [SEMOTIADIL] | 3.4 | 1.3
6.21 | 7.46 |  |  |  | 6.68 | COc1ccc(CCN(C)CCCC(C#N)(c2ccc(OC)c(OC)c2)C(C)C)cc1OC (stereo unspecified) [VERAPAMIL] | 17.7 | 3
